Experimental data reported in patent US20240109855A1, “ANTI-QUORUM SENSING, ANTI-BIOFILM, AND INFLAMMATION ATTENUATING COMPOUNDS, COMPOSITIONS, AND METHODS OF USING SAME” (priority 2021, published 2024).
Entries after “also recorded” stand apart in the source; their conditions may differ. Read-outs that look alike come from different tables or passages of the source.

Key:
[1] = tested on: quorum sensing (CV026 and KYC55); experiment: Quorum sensing inhibition, overall statement over the bio-reporter bacteria; type: cell-based; conditions: for QSI: Table 6 summary; for QSI activity overall, in words: running text
Description: (§1) TLC preparation: all derivatives were dissolved in 100% acetonitrile to a concentration of 40 mM. Then placed 20 μlon the same spot on the TLC and let the solvent evaporate before use. CV026: few colonies were transferred to liquid LB (Lenox) for overnight incubation at 30° C. in a 45 degree in orbital shaker. At the O.D. 0.8 3 ml of the starter was added to preheated soft LB agar containing 500 nM of 3-oxo-C6 (Sigma-Aldrich). The mixture was then loaded on the TLC in a glass plate for O.N. incubation in 30° C. The next day inhibition zone was measured, while QS is taking place bacteria produce purple pigment, and when QS is inhibited no pigment is produced. KYC55 (pJZ372) (pJZ384) (pJZ410): 20 μl from the frozen stock into 25 ml AT media (AT buffer×20: 1.57 M KH2PO4 pH=7.3. AT salts mix×20: 300 mM (NH4)2SO4, 13 mM MgSO4, 1.4 mM CaCl2, 0.4 mM FeSO4·7H2O, 0.26 mM MnSO4·H2O. AT media: 50 ml×20 AT-buffer, 50 ml×20 AT-salts, 10 ml 50% (w/v) glucose, add 890 ml to final volume of 1 liter.) For O.N. at 30° C. in an orbital shaker. Into preheated water agar with 25 ml AT-buffer, and 60 μg/ml X-gal and 5 nM 3-oxo-c8 (both from Sigma-Aldrich) 25 ml of the starter was added. Then, that mixture was loaded on the TLC in glass plate for O.N. incubation in 30° C. The next day the inhibition zone was measured. The bacteria produce blue pigment during QS and when QS is inhibited no pigment is produced. KYC55 (pJZ372) (pJZ384) (pJZ410) preservation in tetracycline (1 μg/ml), spectinomycin (100 μg/ml), gentamicin (100 μg/ml) (all antibiotics from Sigma Aldrich) in AT media O.N. then centrifuged and suspend in 15% glycerol frozen and maintained at −80° C.
All the synthesized compounds were evaluated for quorum sensing inhibition against two bioreporter bacteria strains, Chromobacterium violaceum (CV026) and Agrobacterium tumefaciens (KYC55) and the results are summarized in Table 1.

Staphylococcus aureus = experiment: Diffusion discs test, Staphylococcus aureus; type: cell-based; set-up: key to Staphylococcus aureus, diameter of growth inhibition: —: no activity; conditions: for Staphylococcus aureus, diameter of growth inhibition: discs with 40 mM of compound in 20 μl solvent
Description: (§2) All derivatives were dissolved in acetonitrile to a final concentration of 40 mM. Twenty (20) μl were loaded onto Whatman filter paper discs and dried. Bacillus subtilis, Staphylococcus aureus, and Acinetobacter baumannii were grown in LB (Lenox) O.N. One hundred (100) μl from the starter culture was plated on LB agar (Miller) dishes. Streptococcus sobrinus, and Streptococcus mutans grown in Brain Heary Infusion (BHI, Himedia) O.N. were similarly plated on BHI agar dishes. Discs were laid and incubated O.N. in 37° C. and the diameter of inhibition of bacterial growth was measured.

NF-kB = experiment: NF-kB-luciferase reporter gene assay in L428 cells; type: cell-based, human; conditions: Table 6 summary; also: key: +: active; −: inactive
Description: FIG. 7 includes a vertical bar graph showing a dose response of NF-kB activation according to an NF-kB reporter gene luciferase assay. L428 cells were stably transfected with the NF-kB luciferase reporter gene. The cells were incubated with the compounds at different concentrations for 2 hours. […] The results represent the percentage of NF-kB activation as compared to vehicle (DMSO) treated cells. All samples were normalized to protein concentration. Mean+SD, Two-way ANOVA and Tukey's multiple comparison test. 95% confidence interval (p-values *≤0.0332, **≤0.0021, ***≤0.0002).
L428 cells stable transfectants with the luciferase NF-kB-Luc reporter gene were generated previously described (Ozer et al., 2009), and were maintained in 500 μg/ml of G418 (G418 disulfate salt, Sigma-Aldrich). The cells (5×10^5 /well in triplicate) were incubated for 2 hrs. in 1 ml of medium containing the solvent (DMSO) or different concentrations of the molecules tested. Cells were then harvested, lysed, and monitored by a luciferase reporter assay kit (Promega) according to the manufacturer's instructions. Measurements were carried out using a luminometer (Promega, GLOMAX™ 20/20 Luminometer). Data were normalized to the protein concentration in each lysate as measured by the Bradford method (BioRad) and normalized to the control. Experiments were repeated at least three times.

PA01 = experiment: Diffusion discs test, PA01; type: cell-based, P. aeruginosa; set-up: key: —: no activity; conditions: discs with 40 mM of compound in 20 μl solvent
Streptococcus mutans = experiment: Diffusion discs test, Streptococcus mutans; type: cell-based; set-up: key: —: no activity; conditions: discs with 40 mM of compound in 20 μl solvent
Description: as §2

in vitro = conditions: human, LC50
Description: (§3) The human Hodgkin's Lymphoma derived L428 cell line was used as a model. The cells were grown in RPMI Medium 1640 with 10% FBS, 1% Glutamine and pen-strep (all from Biological Industries, Israel). […] Thirty thousand (30,000) cells/well were placed in 96-well plates with the coumaperine derivatives at different concentrations or with vehicle (DMSO) at a final volume of 200 μl. The plates were incubated for 48 hrs. at 37° C. and 5% CO2 followed by the addition of 50 μl of the XTT reagent tetrazolium-formazan, (Biological Industries, Israel) was added for 2 hrs. at 37° C., 5% CO2. In living cells, mitochondria […] the tetrazolium-formazan salt, thereby generating a color absorbing product at 450 nm. Absorbance was measured at 450 nm and 650 nm in an enzyme-linked immunosorbent assay (ELISA) plate reader (Multiskan Spectrum, Version 1.2), and recorded. Absorption values at 650 nm were subtracted from the blank and the 450 nm values. The results were normalized to the control (treated with DMSO).
(§4) Viability was determined in triplicate in two independent tests. The results were normalized to vehicle (DMSO) treated cells, (100% viability). Mean+SD.

L428 cells [2] = experiment: in vitro
Description: as §3, §4

[3] = tested on: gram-positive and gram-negative bacteria; experiment: Antibacterial activity, overall statement (diffusion discs test); type: cell-based; conditions: for Antibacterial: Table 6 summary; for Antibacterial activity, in words: running text
Description: as §2
The antibacterial activities of derivatives showing QSI are outlined in Table 4. […] Similar to that idea, synthetic derivatives of furanon (product of marine algae) shown in-vivo QSI activity without antibacterial activity followed by immune response of the infected animal. Phenolic compounds decrease QS and virulence in PA01 and Chromobacterium violaceum. There is increasing number of studies, searching for compounds that targeting non-vital processes to combat bacteria.

[4] = tested on: Chromobacterium violaceum (CV026); experiment: Quorum sensing inhibition test with bio-reporter CV026 (TLC overlay); type: cell-based; conditions: for Degree of QSI of CV026: Table 1, coumaperine derivatives, 40 mM in ~20 μL acetonitrile dried on TLC plate, overnight, color intensity; for QSI activity against CV026, in words: running text; as to Degree of QSI of CV026: key: −: no inhibition; +: low inhibition; ++: medium inhibition; +++: strong inhibition; as to Degree of quorum sensing inhibition (QSI), CV026: key: −: no inhibition; +: low inhibition; ++: medium inhibition; +++: strong inhibition
Description: as §1

[5] = tested on: Agrobacterium tumefaciens (KYC55); experiment: Quorum sensing inhibition test with bio-reporter KYC55 (TLC overlay); type: cell-based; conditions: for Degree of QSI of KYC55: Table 1, coumaperine derivatives, 40 mM in ~20 μL acetonitrile dried on TLC plate, overnight, color intensity; for QSI activity against KYC55, in words: running text; as to Degree of QSI of KYC55: key: −: no inhibition; +: low inhibition; ++: medium inhibition; +++: strong inhibition; as to Degree of quorum sensing inhibition (QSI), KYC55: key: −: no inhibition; +: low inhibition; ++: medium inhibition; +++: strong inhibition
Description: as §1

Bacillus subtilis = experiment: Diffusion discs test, Bacillus subtilis; type: cell-based; set-up: key: —: no activity; conditions: discs with 40 mM of compound in 20 μl solvent
Description: as §2

Acinetobacter baumannii = experiment: Diffusion discs test, Acinetobacter baumannii; type: cell-based; set-up: key: —: no activity; conditions: discs with 40 mM of compound in 20 μl solvent
Description: as §2

Streptococcus sobrinus = experiment: Diffusion discs test, Streptococcus sobrinus; type: cell-based; set-up: key: —: no activity; conditions: discs with 40 mM of compound in 20 μl solvent
Description: as §2

L428 cells [6] = conditions: cited from earlier work
[7] = Table 2, piperlongumine derivatives

## O=C(/C=C/C=C/c1ccc(F)cc1)N1CCCCC1 [CP-154, (2E,4E)-5-(4-fluorophenyl)-1-(piperidin-1-yl)penta-2,4-dien-1-one]
[1]
  QSI: +
  QSI activity overall, in words: anti QS activity
Staphylococcus aureus
  Staphylococcus aureus, diameter of growth inhibition: 11 mm
NF-kB
  Anti-inflammatory: +
PA01
  PA01, diameter of growth inhibition: —
Streptococcus mutans
  Streptococcus mutans, diameter of growth inhibition: —
In vitro
  CC50 at 48 h: 46.8 µM
L428 cells [2]
  Cytotoxic: +
  Cytotoxic activity, in words: cytotoxic
[3]
  Antibacterial: +
  Antibacterial activity, in words: showed antibacterial activity
[4]
  Degree of QSI of CV026: +++
  QSI activity against CV026, in words: highly active
[5]
  Degree of QSI of KYC55: +++
  QSI activity against KYC55, in words: highly active
Bacillus subtilis
  Bacillus subtilis, diameter of growth inhibition: 7 mm
Acinetobacter baumannii
  Acinetobacter baumannii, diameter of growth inhibition: —
Streptococcus sobrinus
  Streptococcus sobrinus, diameter of growth inhibition: 9 mm

## O=C1C=CCCN1C(=O)/C=C/c1cc(O)c(O)c(O)c1 [PL-25, trihydroxy piperlongumine]
Staphylococcus aureus
  Staphylococcus aureus, diameter of growth inhibition: 9 mm
PA01
  PA01, diameter of growth inhibition: —
Streptococcus mutans
  Streptococcus mutans, diameter of growth inhibition: —
In vitro
  CC50 at 48 h: 46.3 µM
[3]
  Antibacterial activity, in words: showed antibacterial activity
[4]; [7]
  Degree of quorum sensing inhibition (QSI), CV026: −
[4]
  QSI activity against CV026, in words: inactive
[5]; [7]
  Degree of quorum sensing inhibition (QSI), KYC55: ++
[5]
  QSI activity against KYC55, in words: moderate inhibition
Bacillus subtilis
  Bacillus subtilis, diameter of growth inhibition: —
Acinetobacter baumannii
  Acinetobacter baumannii, diameter of growth inhibition: —
Streptococcus sobrinus
  Streptococcus sobrinus, diameter of growth inhibition: —

## CSc1ccc(/C=C/C=C/C(=O)N2CCCCC2)cc1 [CP-147, (2E,4E)-5-(4-(methylthio)phenyl)-1-(piperidin-1-yl)penta-2,4-dien-1-one]
Staphylococcus aureus
  Staphylococcus aureus, diameter of growth inhibition: 9 mm
Staphylococcus aureus; running text
  Staphylococcus aureus growth inhibition, in words: inhibits Staphylococcus aureus growth
PA01
  PA01, diameter of growth inhibition: —
Streptococcus mutans
  Streptococcus mutans, diameter of growth inhibition: —
[3]
  Antibacterial activity, in words: showed antibacterial activity
[4]
  Degree of QSI of CV026: +
  QSI activity against CV026, in words: low activity; also recorded: low QS inhibition effect
[5]
  Degree of QSI of KYC55: −
  QSI activity against KYC55, in words: inactivity; also recorded: does not affect QS
Bacillus subtilis
  Bacillus subtilis, diameter of growth inhibition: —
Acinetobacter baumannii
  Acinetobacter baumannii, diameter of growth inhibition: —
Streptococcus sobrinus
  Streptococcus sobrinus, diameter of growth inhibition: —

## O=C(/C=C/C=C/c1ccccc1)N1CCCCC1 [CP-9, (2E,4E)-5-phenyl-1-(piperidin-1-yl)penta-2,4-dien-1-one]
[1]
  QSI: +
  QSI activity overall, in words: anti QS activity
Staphylococcus aureus
  Staphylococcus aureus, diameter of growth inhibition: 9 mm
NF-kB
  Anti-inflammatory: +
L428 cells [6]
  Cytotoxicity, previously reported: cytotoxic
PA01
  PA01, diameter of growth inhibition: —
Streptococcus mutans
  Streptococcus mutans, diameter of growth inhibition: —
In vitro
  CC50 at 48 h: 24.7 µM
L428 cells [2]
  Cytotoxic: +
L428 cells [2]; human, 48 h
  CC50: 24.7 µM
[3]
  Antibacterial: +
  Antibacterial activity, in words: showed antibacterial activity; also recorded: inhibit bacterial growth of the three gram-positive bacteria; also recorded: some antibiotic activity
[4]
  Degree of QSI of CV026: ++
  QSI activity against CV026, in words: moderate
[5]
  Degree of QSI of KYC55: +
  QSI activity against KYC55, in words: low
Bacillus subtilis
  Bacillus subtilis, diameter of growth inhibition: 8 mm
Acinetobacter baumannii
  Acinetobacter baumannii, diameter of growth inhibition: —
Streptococcus sobrinus
  Streptococcus sobrinus, diameter of growth inhibition: 9 mm

## O=C(/C=C/C(=O)N1CCCCC1)c1ccc(F)c(F)c1 [CP-287, (E)-3-(benzoyl 3,4-difluoro)-1-(piperidin-1-yl)prop-2-en-1-one]
[1]
  QSI: +
Staphylococcus aureus
  Staphylococcus aureus, diameter of growth inhibition: —
NF-kB
  Anti-inflammatory: +
PA01
  PA01, diameter of growth inhibition: —
Streptococcus mutans
  Streptococcus mutans, diameter of growth inhibition: —
L428 cells [2]
  Cytotoxic: +
L428 cells [2]; read-out: LC50, L428 cells, 48 hrs
  CC50: 284 µM
L428 cells [2]; read-out: LC50, Table 5, L428 cells, 48 hrs
  CC50: 284 µM
[3]
  Antibacterial: −
  Antibacterial activity, in words: showed antibacterial activity
Bacillus subtilis
  Bacillus subtilis, diameter of growth inhibition: —
Acinetobacter baumannii
  Acinetobacter baumannii, diameter of growth inhibition: —
Streptococcus sobrinus
  Streptococcus sobrinus, diameter of growth inhibition: 9 mm

## O=C(/C=C/C1CCCCC1)N1CCCCC1 [CP-295, (E)-cyclohexyl-1-(piperidin-1-yl)prop-2-en-1-one]
Staphylococcus aureus
  Staphylococcus aureus, diameter of growth inhibition: —
PA01
  PA01, diameter of growth inhibition: —
Streptococcus mutans
  Streptococcus mutans, diameter of growth inhibition: —
In vitro
  CC50 at 48 h: 408 µM
[3]
  Antibacterial activity, in words: showed antibacterial activity
[4]
  Degree of QSI of CV026: ++
  QSI activity against CV026, in words: moderate activity
[5]
  Degree of QSI of KYC55: ++
  QSI activity against KYC55, in words: moderate activity
Bacillus subtilis
  Bacillus subtilis, diameter of growth inhibition: —
Acinetobacter baumannii
  Acinetobacter baumannii, diameter of growth inhibition: —
Streptococcus sobrinus
  Streptococcus sobrinus, diameter of growth inhibition: 12 mm
